In patent US6670374B1 (priority 2002, dated 2003):
“Also recorded” adds a separate entry of the source.

Assays:
[1] = in vivo
[2] = system: E. coli O157:H7 strain 86-24; parameters: species or system piglets; details: in vivo

## O[C@H]1[C@H]2[C@H](O)CCCN2C[C@H]1O [swainsonine]
[1]
  adverse effects: no adverse effects
Vero cells
  lowest concentration at which a protective effect from co-incubation was observed: 0.012 μg/well
  toxic effects in swainsonine control wells: No toxic effects were observed
[2]
  progression and severity of disease / outcome at 68 h post challenge: progression of disease was less rapid and for all except one, much less severe; also recorded: Two of the swainsonine-treated pigs were recovering from the disease by 68 h post challenge
